The values that follow come from patent publication US9200301B2, “Marine streptomyces, pyranosesquiterpene compound, as well as preparation method and applications thereof” (SOUTH CHINA SEA INSTITUTE OF OCEANOLOGY, CHINESE ACADEMY OF …, priority 2011, dated 2015).

Converted amounts (≈) assume the structure as drawn. “Also recorded” adds a separate entry of the source. Read-outs that look alike come from different tables or passages of the source.

The test system of series [1] is Artemia larvae. The series can be described thus: Artemia larva lethal test. The format is in vivo. The following applies: for LC50: Artemia larvae, 24 h at room temperature, from corrected mortality; for LC50 value: against Artemia larvae; for lethal Artemia activity (in words): in vivo. How it is done:
(§1) Hatching of Artemia larvae: placing 100 mg of Artemia eggs in a 500 mL beaker, adding 400 mL of artificial sea water, inflating air slowly by using a small inflator pump, hatching at room temperature for 24 h, removing egg shells and the unhatched eggs, and continuously culturing the Artemia larvae for 24 h for later use.
(§2) The biological lethal method of the Artemia larvae is as follows: taking a 96-well cell culture plate according to a Solis improvement method, and adding 2004, of artificial sea water solution containing 10-15 Artemia in each well to prepare a test culture plate. […] A blank control group and sample groups of each concentration are respectively provided with three parallel holes, 54, of the sample solvent (DMSO) is added for the blank control group, 54, of the sample solutions of different concentrations are respectively added into the sample groups, and the final concentrations are 500 μg/mL, 50 μg/mL and 5 μg/mL respectively. The culture is performed at room temperature for 24 h, and then the number of dead individuals of the Artemia larvae is detected and counted under a binocular dissecting microscope. The biological lethal activity of the Artemia larvae is represented by corrected mortality and is calculated according to the following formula: Corrected mortality=(survival rate of control group−survival rate of treated group)/survival rate of control group×100%
(§3) The three concentrations and the corresponding corrected mortalities are input into a computer for respectively calculating LC50 and 95% confidence interval thereof.

Series [2] relates to Vibrio anguillarum. The following applies: cited from earlier work; for MIC: against Vibrio anguillarum, values of compounds 2, 3 and 4 referred to Fdhila F et al., Journal of Natural Products, 2003, 66 (10): 1299-1301; for activity against Vibrio anguillarum (in words): compounds 2-4, based on Fdhila F et al.
The test system of series [3] is Escherichia coli. Nature of the series: Anti-Escherichia coli activity test (paper sheet / dilution multiple method). The format is cell-based. On the procedure: The samples are preliminarily tested and compared with the positive control, namely the rifampicin under the situation that each sample is 100 μg/tablet and the rifampicin taken as a standard product is 1 μg/tablet.

A short description of series [4]: Artemia larva lethal test. The format is in vivo. The following applies: Artemia (brine shrimp) larvae, in vivo; against Artemia larvae. How it is done: as §1, §2, §3
In series [5] the test system is Vibrio anguillarum. The series can be described thus: Anti-Vibrio anguillarum activity test (paper sheet / dilution multiple method). The format is cell-based. How it is done:
The samples are preliminarily tested under the situation that each sample is 100 μg/tablet, and the samples are found to have better activities. Then a dilution multiple method is adopted for testing the MIC values (the diameters of the paper sheets are 6 mm, 6-10 mm means weak activity, 10-15 mm means medium activity and 15 mm or more means strong activity).

As a reminder, the LC50 is the concentration that kills 50% of the test population. A high value points to lower toxicity. Take `O=C1N[C@H](Cc2ccccc2)C(=O)N2C[C@@H](O)C[C@H]12` (relative stereo) [compound 4, Cyclo(D)-trans-4-OH-Pro-(D)-Phe]: in series [1], the median lethal concentration (LC50) was 13.45 µg/mL (≈ 51.7 µM), the LC50 value came to 13.45 µg/mL (≈ 51.7 µM) and the “lethal Artemia activity (in words)” value is recorded as “better lethal Artemia activity”. In addition, in series [2], the MIC was 0.07 µg/mL (≈ 0.269 µM) and the “activity against Vibrio anguillarum (in words)” value was “better inhibitory activity; also recorded: great bactericidal activity”. Further, the “inhibitory activity against Escherichia coli (in words)” value in series [3] is “weaker”.
In the case of `CCCCCC/C=C/CCC1C=CCC(=O)O1` (stereo not shown) [compound 1], the “lethal Artemia activity (in words)” value in series [1] is reported as “better lethal Artemia activity; also recorded: very good”. For the same compound, the median lethal concentration (LC50) at 24 h in series [4] amounted to 3.25 µg/mL (≈ 13.8 µM). In addition, the MIC in series [5] (against Vibrio anguillarum, LB medium, 37° C., observed after 24 h) was above 100 µg/mL; in series [3] (against Escherichia coli, LB medium, 37° C., observed after 24 h, read-out: MIC) it was 1.58 µg/mL (≈ 6.68 µM); in series [3] (anti-Escherichia coli activity, read-out: MIC (minimal inhibitory concentration) value), 1.58 µg/mL (≈ 6.68 µM). For the same compound, the “inhibitory activity against Vibrio anguillarum (in words)” value in series [5] (compound 1) is “weaker”. Besides, the “inhibitory activity against Escherichia coli (in words)” value in series [3] is “better inhibitory activity”.
Take `CC[C@@H](C)[C@H]1NC(=O)[C@H]2CCCN2C1=O` [compound 2, Cyclo(D)-Pro-(D)-Ile]: in series [1], the LC50 was determined as 55.67 µg/mL (≈ 265 µM), the LC50 value turned out to be 55.67 µg/mL (≈ 265 µM) and the “lethal Artemia activity (in words)” value is listed as “better lethal Artemia activity”. Further, in series [2], the MIC is 0.05 µg/mL (≈ 0.238 µM) and the “activity against Vibrio anguillarum (in words)” value is recorded as “better inhibitory activity; also recorded: great bactericidal activity”. Also, the “inhibitory activity against Escherichia coli (in words)” value in series [3] is listed as “weaker”.
`CC(C)C[C@H]1NC(=O)[C@H]2CCCN2C1=O` [compound 3, Cyclo(D)-Pro-(D)-Leu]: in series [1], the LC50 was found to be 87.63 µg/mL (≈ 417 µM), the LC50 value was found to be 87.63 µg/mL (≈ 417 µM) and the “lethal Artemia activity (in words)” value is reported as “better lethal Artemia activity”. For the same compound, in series [2], the MIC is 0.04 µg/mL (≈ 0.19 µM) and the “activity against Vibrio anguillarum (in words)” value is reported as “better inhibitory activity; also recorded: great bactericidal activity”. Besides, the “inhibitory activity against Escherichia coli (in words)” value in series [3] was “weaker”.
